{
  "source": "paper PMC7502707",
  "about": "“Characterization and validation of a preventative therapy for hypertrophic cardiomyopathy in a murine model of the disease” (Proceedings of the National Academy of Sciences of the …, 2020)",
  "key": {"[1]": {"tested_on": "myocytes isolated from wt and cTnI-G203S mice", "test": "Mitochondrial membrane potential (JC-1) in myocytes isolated from treated mice", "format": "in vivo, mouse", "procedure": "Male mice expressing the human cTnI gene encoding the human disease-causing mutation cTnI-G203S were used for all studies. […] Male mice expressing the normal human cTnI gene were used as controls (wt). Ten-week-old mice were used for in vitro studies. For in vivo studies, 20- or 30-wk-old cTnI-G203S mice were treated with 10 μM AID-TAT or AID[S]-TAT via intraperitoneal injection, 3×/wk/5 wk. In vivo dose of AID-TAT or AID[S]-TAT (10 μM) was calculated based on blood volume, equating to ∼2 mg/kg total BW. Male animal models were used to eliminate potential differences in responses due to sex. Experiments were performed in a total of 21 wt (AID[S]-TAT), 6 wt (AID-TAT), 15 cTnI-G203S (AID[S]-TAT), and 26 cTnI-G203S (AID-TAT) mice. All animals were randomly assigned to treatment groups.\nFluorescence was measured on a Hamamatsu Orca ER digital camera attached to an inverted Nikon TE2000-U microscope. Fluorescent indicator 5,5′,6,6′-tetrachloro-1,1′,3,3′-tetraethylbenzimidazolylcarbocyanine iodide was used to measure Ψm in cardiac myocytes, as previously described (JC-1, Molecular Probes) ([61]). Autofluorescence was used to measure flavoprotein oxidation in cardiac myocytes based on previously described methods ([13], [29], [62]). Responses to drugs were reported as a percentage increase from the basal average.\nCells were incubated in calcium-free HBS (supplemented with 3 mM EGTA and 200 nM JC-1) for at least 3 h prior to measuring changes in m. Sodium cyanide (NaCN, 40 mM, mitochondrial electron transport blocker) was added at the end of each experiment to collapse m, confirming that the JC-1 signal was indicative of m.\nAdditionally, individual 580 nm and 535 nm wavelength signals were assessed in each experiment to determine whether the fluorescent indicator was accurately measuring m. Autofluorescence was used to measure flavoprotein oxidation in cardiac myocytes based on previously described methods (ex = 480 nm, em = 535 nm, interval = 1 min, exposure = 1.5 seconds) (4, 6, 7). Carbonyl cyanide-4-(trifluoromethoxy)phenylhydrazone (FCCP, 50 μM, mitochondrial electron transport chain uncoupler) was added at the end of each experiment to increase flavoprotein oxidation confirming signal was mitochondrial in origin. Ratiometric JC-1 or flavoprotein fluorescent signals were quantified by manually tracing myocytes and subtracting an equivalent background region\nResponses to drugs were reported as a percentage increase from the basal average. […]"}, "[2]": {"tested_on": "myocytes isolated from cTnI-G203S mice", "test": "Cell size of myocytes isolated from treated mice", "format": "in vivo, mouse", "conditions": "10 μM 3×/wk/5 wk, compared to AID(S)-TAT", "description": "Cell size was determined as previously described ([64]). Detailed methods are provided in SI Appendix.\nEchocardiographic measurement of left ventricular function were performed on mice under light methoxyflurane anesthesia using an i13L probe on a Vivid 7 Dimension ultrasound system (GE Healthcare, Little Chalfont, United Kingdom) as previously described (4, 7). Echocardiographic measurements were taken on M-mode in triplicate from separate mice at a sweep speed of 200 mm/s. Each n represents the average of quantitative measurements from wt or cTnI-G203S mice for each treatment group. […] FS was calculated by the formula [(LVEDD-LVESD)/EDD] x 100.\nCell size was determined as previously described (16). […]\nTo measure kidney toxicity, urea and creatinine concentration was assessed using QuantiChrom Urea and Creatinine assay kits respectively (BioAssay Systems, Hayward CA). To measure liver toxicity, alanine transaminase (ALT) and aspartate transaminase (AST) concentration was measured using Alanine Transaminase and Aspartate Transaminase assay kits respectively (BioAssay Systems, Hayward CA). […]"}, "[3]": {"tested_on": "wt and cTnI-G203S cardiac myocytes", "parameters": "method as in PMID 19166857, PMID 24969422, PMID 24958783", "conditions": "cited from earlier work"}},
  "data": [
    {"sequence": "QQLEEDLKGYLDWITQAE [AID-TAT]", "values": [
      {"measurement": "cardiac Ψm and mitochondrial metabolic activity (flavoprotein oxidation) following BayK(−)", "setting": "[1]; myocytes from cTnI-G203S mice with established cardiomyopathy treated 10 μM 3×/wk/5 wk from 30 wk", "value": "does not restore cardiac Ψm or mitochondrial metabolic activity to wt levels"},
      {"measurement": "increase in Ψm (JC-1) following BayK(−)", "setting": "[1]; myocytes from precardiomyopathic cTnI-G203S mice treated 10 μM i.p. 3×/wk/5 wk from 20 wk", "value": "reduced this response to a level comparable to that observed in wt myocytes"},
      {"measurement": "echocardiographic parameters and cell size", "setting": "[2]; 30-wk-old cTnI-G203S mice", "value": "did not significantly improve echocardiographic parameters, or alter cell size"},
      {"measurement": "myocyte cell size", "setting": "[2]; precardiomyopathic cTnI-G203S mice", "value": "significantly lower cell size"},
      {"measurement": "elevated Ψm in response to activation of ICa-L", "setting": "[3]", "value": "attenuates elevated Ψm"}
    ]}
  ]
}
